Results: article PMC7357032, “Antiparasitic Constituents of Beilschmiedia louisii and Beilschmiedia obscura and Some Semisynthetic Derivatives (Lauraceae)” (Molecules, 2020)
Like-named read-outs stand apart in the source and are kept apart here.

Tests used:
[1] = system: Trypanosoma brucei brucei; assay: In vitro antitrypanosomal assay (resazurin viability); conditions: for antitrypanosomal activity against Tb brucei (in words): in vitro; for IC50: Trypanosoma brucei
[2] = Cytotoxicity assay (resazurin); type: cell-based; conditions: human, compounds and combinations, HeLa cells, read-out: % Cell Viability ± sd Cytotoxicity
Method: Human cervix adenocarcinoma cells (HeLa cells) were used to check the toxicity of the crude extract and compounds and their combinations as described by Keusch et al. (1972). Stocks solutions were prepared in DMSO at a concentration of 50 μg/mL for the extracts and 20 μM for compounds, and combinations. To assess the overt cytotoxicity, samples were placed in 96-well plates containing cells for 48 h. The numbers of cells surviving drug treatment were determined using the resazurin based reagent and reading resorufin fluorescence in a Spectramax M3 microplate reader. Results were expressed as % viability-the resorufin fluorescence in compound-treated wells relative to untreated controls. Compounds were tested in duplicate and standard deviations (SD) derived. […] (which induces cell apoptosis) was used as the positive control.

[3] = system: Plasmodium falciparum strain Pf3D7; assay: In vitro antiplasmodial assay (pLDH assay); conditions: read-out: IC50 Pf3D7
[4] = read-out: IC50 Tb brucei, compounds, values given in µg/mL in the text

Compound | viability at 48 h, 20 µM (stock) [2] | further results
CCCCCCCCC1C2C=CC3C(C(=O)O)C=CC4CC1C2C43 (stereo not drawn) [Compound 11, beilschmiedic acid E] | 100 ± 5.8% | antitrypanosomal activity against Tb brucei (in words) [1]: inactive
CCCC/C=C\CCCCc1ccccc1 [Compound 3, (5Z) 1-phenyldec-5-ene] | 50.3 ± 8.9% | 
CCCCCCCC[C@@H]1[C@H]2C=C[C@H]3C(/C=N/NC(N)=S)=CC[C@@H]4C[C@@H]1[C@@H]2[C@H]43 [Compound 11c, beilschmiecarbazone] | 100 ± 2.8% | 
CCN(CC)CCCC(C)Nc1ccnc2cc(Cl)ccc12 (stereo not drawn) [Chloroquine] |  | IC50 [3]: 0.034 µM
CCCCCCCCC1C2C=CC3C(CO)C=CC4CC1C2C43 (stereo not drawn) [Compound 11a, beilschmiedol A] | 52.6 ± 1.8% | antitrypanosomal activity against Tb brucei (in words) [1]: moderate activity
CCCCCCCC[C@@H]1[C@H]2C=C[C@H]3C(C=O)=CC[C@@H]4C[C@@H]1[C@@H]2[C@H]43 [Compound 11b, beilschmiedal] | 79.6 ± 17.1% | IC50 [1, 4]: 8.3 µg/mL; IC50 [3]: 31.4 µM
CC[C@H](CC[C@@H](C)[C@H]1CC[C@H]2[C@@H]3CC=C4C[C@@H](O)CC[C@]4(C)[C@H]3CC[C@]12C)C(C)C [Compound 13, β-sitosterol] |  | IC50 ([1]; 48 h, read-out: IC50 Tb Brucei, isolated compounds, mixtures and drug standard, dose-response, for 6 + 7 IC50 maximum calculated with the constituent of lowest molecular mass): 9.5 µM
CCCCCCCCC1C2C=CC3C(COC(=O)c4cc(OC)c(OC)c(OC)c4)C=CC4CC1C2C43 (stereo not drawn) [Compound 11d, beilschmiegallate] | 100 ± 3.4% | 
N=C(N)c1ccc(OCCCCCOc2ccc(C(=N)N)cc2)cc1 [Pentamidine, reference compound] |  | IC50 [1, 4]: ~0.01 µg/mL
O=C(O)CCCCCCCCCCCCCCc1ccccc1 [Compound 5, 15-phenylpentadecanoic acid] | 76.6 ± 4.1% | 
O=C(O)C[C@@H]1[C@H]2C=C[C@H]3C(c4ccc5c(c4)OCO5)=CC[C@@H]4C[C@@H]1[C@@H]2[C@H]43 [Compound 12, methylenedioxyendiandric acid A] | 100 ± 10.8% | 
